Where two headings read alike, the source gives them in different places.
How the values were obtained:
[1] = system: NCI-H1373 (human lung adenocarcinoma) cells; test: Cell proliferation assay (CellTiter-Glo), NCI-H1373; format: cell-based; details: 6 days, CellTiter-Glo, read-out: NCI-H1373 GI50
PARP2 = PARP2 (Homo sapiens (Human), UniProt Q9UGN5); test: PARP2 biochemical assay; details: read-out: PARP2 IC50
His-GST-PARP7 = His-GST-PARP7 (Homo sapiens (Human), UniProt Q7Z3E1); test: PARP7 biochemical assay; details: read-out: PARP7 IC50
Chain of His-GST-PARP7 (Q7Z3E1 whole entry): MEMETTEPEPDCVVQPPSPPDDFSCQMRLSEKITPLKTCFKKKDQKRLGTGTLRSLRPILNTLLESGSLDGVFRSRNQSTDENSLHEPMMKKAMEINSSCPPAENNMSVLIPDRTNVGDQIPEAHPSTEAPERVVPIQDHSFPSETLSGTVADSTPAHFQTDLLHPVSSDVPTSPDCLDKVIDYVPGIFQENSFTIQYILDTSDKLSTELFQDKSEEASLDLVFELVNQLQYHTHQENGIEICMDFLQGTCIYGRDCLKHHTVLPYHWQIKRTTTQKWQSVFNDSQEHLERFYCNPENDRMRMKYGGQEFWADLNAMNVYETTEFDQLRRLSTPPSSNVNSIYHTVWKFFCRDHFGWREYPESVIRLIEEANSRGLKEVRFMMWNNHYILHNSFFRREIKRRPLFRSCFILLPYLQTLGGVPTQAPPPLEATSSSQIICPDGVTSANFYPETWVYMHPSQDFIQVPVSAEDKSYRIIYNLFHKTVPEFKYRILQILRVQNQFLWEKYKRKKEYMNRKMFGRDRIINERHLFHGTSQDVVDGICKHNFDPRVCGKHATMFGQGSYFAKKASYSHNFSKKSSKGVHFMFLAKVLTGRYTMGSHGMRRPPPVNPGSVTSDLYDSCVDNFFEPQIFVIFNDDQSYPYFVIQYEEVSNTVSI

PARP1 = PARP1 (Homo sapiens (Human), UniProt P09874); test: PARP1 biochemical assay
Chain of PARP1 (P09874 whole entry, species assumed): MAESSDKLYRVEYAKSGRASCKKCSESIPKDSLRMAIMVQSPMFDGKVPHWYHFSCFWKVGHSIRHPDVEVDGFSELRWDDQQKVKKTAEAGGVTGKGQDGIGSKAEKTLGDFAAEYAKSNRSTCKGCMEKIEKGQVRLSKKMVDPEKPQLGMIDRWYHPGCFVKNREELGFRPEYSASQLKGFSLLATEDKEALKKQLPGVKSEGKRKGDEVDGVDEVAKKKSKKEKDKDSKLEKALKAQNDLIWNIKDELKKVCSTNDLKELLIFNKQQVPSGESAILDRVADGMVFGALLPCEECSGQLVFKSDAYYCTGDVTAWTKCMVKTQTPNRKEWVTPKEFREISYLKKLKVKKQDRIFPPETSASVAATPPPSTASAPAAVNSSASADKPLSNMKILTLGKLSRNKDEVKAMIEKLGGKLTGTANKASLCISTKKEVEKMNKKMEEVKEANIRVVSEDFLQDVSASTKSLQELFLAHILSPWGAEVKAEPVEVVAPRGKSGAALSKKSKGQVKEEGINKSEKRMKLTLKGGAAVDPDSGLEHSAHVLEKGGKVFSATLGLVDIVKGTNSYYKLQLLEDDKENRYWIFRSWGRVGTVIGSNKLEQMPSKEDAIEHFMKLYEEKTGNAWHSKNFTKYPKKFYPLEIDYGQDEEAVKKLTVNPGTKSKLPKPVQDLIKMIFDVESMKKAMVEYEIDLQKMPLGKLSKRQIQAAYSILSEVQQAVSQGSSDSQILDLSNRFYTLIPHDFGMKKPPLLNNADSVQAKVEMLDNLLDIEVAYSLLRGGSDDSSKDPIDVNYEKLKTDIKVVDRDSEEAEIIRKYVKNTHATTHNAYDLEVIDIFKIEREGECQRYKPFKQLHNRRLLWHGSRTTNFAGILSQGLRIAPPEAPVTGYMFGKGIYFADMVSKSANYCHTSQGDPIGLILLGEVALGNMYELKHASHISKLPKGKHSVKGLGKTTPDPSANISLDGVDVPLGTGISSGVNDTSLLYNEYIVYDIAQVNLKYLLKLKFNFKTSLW

[2] = system: HARA (human lung squamous cell carcinoma) cells; test: Cell proliferation assay (CellTiter-Glo), HARA; format: cell-based; details: 6 days, CellTiter-Glo, read-out: HARA GI50
STING, pTBK1, pIRF3 = test: STING, pTBK1 and pIRF3 western blot in CT-26 cells; format: cell-based, mouse
[3] = system: CT26 (mouse colon adenocarcinoma) cells; test: Cell proliferation assay (CellTiter-Glo), CT26; format: cell-based; details: Mus musculus, CT26, 144 h, 6 days
secreted IFN-β = test: Interferon-β ELISA, CT-26 cells; format: cell-based, mouse
Procedure: CT-26 cells were seeded into a 6-well plate. After 24 h, the growth media was replaced, and cells were treated with inhibitors. After treatment, growth media was harvested and assayed with PBL Verikine Mouse IFN-β ELISA kit following the manufacturer protocol.

Chain of PARP2 (Q9UGN5 whole entry): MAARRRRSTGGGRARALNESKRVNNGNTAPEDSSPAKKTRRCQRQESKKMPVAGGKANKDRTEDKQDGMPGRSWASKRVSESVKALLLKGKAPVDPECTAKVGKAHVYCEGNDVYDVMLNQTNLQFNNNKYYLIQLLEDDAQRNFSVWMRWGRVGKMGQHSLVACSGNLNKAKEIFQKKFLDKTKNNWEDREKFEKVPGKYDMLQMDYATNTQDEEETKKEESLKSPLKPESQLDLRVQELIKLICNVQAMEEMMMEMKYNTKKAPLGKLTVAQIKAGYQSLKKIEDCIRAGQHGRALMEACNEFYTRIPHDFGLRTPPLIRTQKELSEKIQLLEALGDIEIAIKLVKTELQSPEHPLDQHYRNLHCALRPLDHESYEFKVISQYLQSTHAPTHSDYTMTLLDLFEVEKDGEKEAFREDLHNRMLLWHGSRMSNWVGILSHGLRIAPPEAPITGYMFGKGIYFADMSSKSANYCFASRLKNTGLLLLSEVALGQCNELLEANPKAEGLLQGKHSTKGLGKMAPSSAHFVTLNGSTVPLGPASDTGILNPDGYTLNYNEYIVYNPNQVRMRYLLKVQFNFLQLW

Compound	GI50 [1] [nM]	IC50 (PARP2) [nM]	IC50 (His-GST-PARP7) [nM]	IC50 (PARP1) [nM]	GI50 [2] [nM]	STING levels (STING, pTBK1, pIRF3)	pTBK1 and pIRF3 (STING, pTBK1, pIRF3)	GI50 ([1]; Homo sapiens, NCI-H1373, 144 h) [nM]	GI50 [3] [nM]	GI50 ([2]; Homo sapiens, 144 h) [nM]	PARP7 inhibitor-induced induction of IFN-β (secreted IFN-β)
6-(4-(5-((7-cyclobutoxy-4-oxo-3,4-dihydrophthalazin-1-yl)methyl)-2-fluorobenzoyl)piperazin-1-yl)-4-methoxynicotinonitrile [Example 137]	< 100	100 to 500	< 50	> 2000	1000 to 5000						
Cc1ccc2c(=O)c3cccc(CC(=O)O)c3oc2c1C [DMXAA]						decreased substantially STING levels	induced robustly both pTBK1 and pIRF3				
C#CC(C)Oc1ccc2c(=O)[nH]nc(Cc3ccc(F)c(C(=O)N4CCN(c5ccc(C#N)cn5)CC4)c3)c2c1 (stereo not drawn) [Example 8, 6-(4-(5-((7-(But-3-yn-2-yloxy)-4-oxo-3,4-dihydrophthalazin-1-yl)methyl)-2-fluorobenzoyl)piperazin-1-yl)nicotinonitrile]		100 to 500	< 50	100 to 500				< 100	< 100	1000 to 5000	
CC#Cc1ccc2c(=O)[nH]nc(Cc3ccc(F)c(C(=O)N4CCn5c(nnc5C(F)(F)F)C4)c3)c2c1 [Example 65, 4-(4-fluoro-3-(3-(trifluoromethyl)-5,6,7,8-tetrahydro-[1,2,4]triazolo[4,3-a]pyrazine-7-carbonyl)benzyl)-6-(prop-1-yn-1-yl)phthalazin-1(2H)-one]		50 to 100	< 50	50 to 100				100 to 1000			
COc1cc2c(Cc3cccc(C(=O)N4CCN(c5ccc(C#N)cn5)CC4)c3)n[nH]c(=O)c2cc1F [Example 82, 6-(4-(3-((6-Fluoro-7-methoxy-4-oxo-3,4-dihydrophthalazin-1-yl)methyl)benzoyl)piperazin-1-yl)nicotinonitrile]		< 50	< 50	< 50				< 100	< 100	100 to 1000	
CC#Cc1cc(C(F)(F)F)c2c(=O)[nH]nc(Cc3ccc(F)c(C(=O)N4CCN(c5ccc(C#N)cn5)CC4)c3)c2c1 [Example 84, 6-(4-(2-Fluoro-5-((4-oxo-7-(prop-1-yn-1-yl)-5-(trifluoromethyl)-3,4-dihydrophthalazin-1-yl)methyl)benzoyl)piperazin-1-yl)nicotinonitrile]		100 to 500	< 50	100 to 500				< 100	> 5000	1000 to 5000	
CC#Cc1ccc2c(=O)[nH]nc(Cc3ccc(F)c(C(=O)N4CCN(c5ccc(C#N)cn5)CC4)c3)c2c1C [Example 86, 6-(4-(2-Fluoro-5-((8-methyl-4-oxo-7-(prop-1-ynyl)-3,4-dihydrophthalazin-1-yl)methyl)benzoyl)piperazin-1-yl)nicotinonitrile]		500 to 2000	< 50	50 to 100				< 100	> 5000	1000 to 5000	
N#Cc1ccc(N2CCN(C(=O)c3cccc(Cc4n[nH]c(=O)c5c(F)c(F)ccc45)c3)CC2)nc1 [Example 87, 6-(4-(3-((5,6-Difluoro-4-oxo-3,4-dihydrophthalazin-1-yl)methyl)benzoyl)piperazin-1-yl)nicotinonitrile]		< 50	< 50	< 50				< 100	100 to 1000	100 to 1000	
N#Cc1ccc(N2CCCC23CN(C(=O)c2cc(Cc4n[nH]c(=O)c5ccc(OC6CCC6)cc45)ccc2F)C3)nc1 [Example 149, 6-(2-(5-((7-cyclobutoxy-4-oxo-3,4-dihydrophthalazin-1-yl)methyl)-2-fluorobenzoyl)-2,5-diazaspiro[3.4]octan-5-yl)nicotinonitrile]			500 to 2000					> 5000	> 5000	> 5000	
N#Cc1cnc(N2CCN(C(=O)c3cc(Cc4n[nH]c(=O)c5ccc(OC6CCC6)cc45)ccc3F)CC2)nc1 [Example 154, 2-(4-(5-((7-cyclobutoxy-4-oxo-3,4-dihydrophthalazin-1-yl)methyl)-2-fluorobenzoyl)piperazin-1-yl)pyrimidine-5-carbonitrile]			< 50					< 100	1000 to 5000	1000 to 5000	
O=C(c1cc(Cc2n[nH]c(=O)c3ccc(OC4CCC4)cc23)ccc1F)N1CCN(c2cc(C(F)(F)F)ccn2)CC1 [Example 156, 6-cyclobutoxy-4-(4-fluoro-3-(4-(4-(trifluoromethyl)pyridin-2-yl)piperazine-1-carbonyl)benzyl)phthalazin-1(2H)-one]			< 50					100 to 1000	> 5000	1000 to 5000	
O=C(c1cc(Cc2n[nH]c(=O)c3ccc(OC4CCC4)cc23)ccc1F)N1CCN(c2ncc(C(F)F)cn2)CC1 [Example 157, 6-Cyclobutoxy-4-(3-(4-(5-(difluoromethyl)pyrimidin-2-yl)piperazine-1-carbonyl)-4-fluorobenzyl)phthalazin-1(2H)-one]			< 50					< 100	1000 to 5000	1000 to 5000	
O=C(c1cc(Cc2n[nH]c(=O)c3ccc(OC4CCC4)cc23)ccc1F)N1CCN(c2ccc(C(F)(F)F)nn2)CC1 [Example 158, 6-cyclobutoxy-4-(4-fluoro-3-(4-(6-(trifluoromethyl)pyridazin-3-yl)piperazine-1-carbonyl)benzyl)phthalazin-1(2H)-one]			< 50					1000 to 5000	1000 to 5000	> 5000	
O=C(c1cc(Cc2n[nH]c(=O)c3ccc(OC4CCC4)cc23)ccc1F)N1CCN(c2ccc(C(F)(F)F)nc2)CC1 [Example 159, 6-Cyclobutoxy-4-(4-fluoro-3-(4-(6-(trifluoromethyl)pyridin-3-yl)piperazine-1-carbonyl)benzyl)phthalazin-1(2H)-one]			< 50					100 to 1000	> 5000	> 5000	
N#Cc1ccc(N2CCN(C(=O)c3cccc(Cc4n[nH]c(=O)c5ccc(OC6CCC6)cc45)n3)CC2)nc1 [Example 176, 6-(4-(6-((7-Cyclobutoxy-4-oxo-3,4-dihydrophthalazin-1-yl)methyl)picolinoyl)piperazin-1-yl)nicotinonitrile]		100 to 500	< 50	50 to 100				100 to 1000	1000 to 5000	> 5000	
N#Cc1ccc(N2CCN(C(=O)c3cncc(Cc4n[nH]c(=O)c5ccc(OC6CCC6)cc45)c3)CC2)nc1 [Example 177, 6-(4-(5-((7-Cyclobutoxy-4-oxo-3,4-dihydrophthalazin-1-yl)methyl)nicotinoyl)piperazin-1-yl)nicotinonitrile]		100 to 500	< 50	50 to 100				< 100	> 5000	> 5000	
N#Cc1ccc(N2CCN(C(=O)c3cc(Br)cc(Cc4n[nH]c(=O)c5ccc(OC6CCC6)cc45)c3)CC2)nc1 [Example 178, 6-(4-(3-Bromo-5-((7-cyclobutoxy-4-oxo-3,4-dihydrophthalazin-1-yl)methyl)benzoyl)piperazin-1-yl)nicotinonitrile]			< 50					100 to 1000	> 5000	1000 to 5000	
N#Cc1ccc(N2CCN(C(=O)c3cc(Cc4n[nH]c(=O)c5ccc(OC6CCC6)cc45)ccn3)CC2)nc1 [Example 179, 6-(4-(4-((7-Cyclobutoxy-4-oxo-3,4-dihydrophthalazin-1-yl)methyl)picolinoyl)piperazin-1-yl)nicotinonitrile]			< 50					< 100	> 5000	> 5000	
N#Cc1ccc(N2CCN(C(=O)c3ccnc(Cc4n[nH]c(=O)c5ccc(OC6CCC6)cc45)c3)CC2)nc1 [Example 180, 6-(4-(2-((7-Cyclobutoxy-4-oxo-3,4-dihydrophthalazin-1-yl)methyl)isonicotinoyl)piperazin-1-yl)nicotinonitrile]			< 50					< 100	1000 to 5000	> 5000	
CC#Cc1ccc2c(=O)[nH]nc(CNC(C)CC(=O)N3CCN(c4ncc(C(F)(F)F)cn4)CC3)c2c1 (stereo not drawn) [Example 191, 4-(((4-Oxo-4-(4-(5-(trifluoromethyl)pyrimidin-2-yl)piperazin-1-yl)butan-2-yl)amino)methyl)-6-(prop-1-yn-1-yl)phthalazin-1(2H)-one]		> 2000	< 50	> 2000				100 to 1000	> 5000	1000 to 5000	
CCc1ccc(NC(=O)Nc2c[nH]c3ccccc23)cc1 [Example H-151]											completely blocked

Source: US20260055079A1, “PHTHALAZINONE COMPOUNDS AS PARP7 INHIBITORS” (AZKARRA THERAPEUTICS, INC., priority 2022, published 2026)
